The test system of series [1] is Human immunodeficiency virus 1. The series is described as follows: Antiviral activity against HIV-1 IIIB. The settings on record: Human immunodeficiency virus 1, IIIB. Format: functional, organism-based.
Series [2] deals with Human immunodeficiency virus 1. The series is described as follows: Antiviral activity against HIV-1 IIIB harboring RT K103N mutant infected in human MT4 cells assessed as protection against virus-induced cytotoxicity incubated for 5 days by MTT assay. The format is functional, organism-based. The settings on record: Human immunodeficiency virus 1, IIIB, MT4, 120 h. (Formazan colour is commonly taken as a measure of viable cells.)

In series [3] the test system is Human immunodeficiency virus 1. The series is described as follows: Antiviral activity against HIV-1 IIIB harboring RT L100I mutant infected in human MT4 cells assessed as protection against virus-induced cytotoxicity incubated for 5 days by MTT assay. Format: functional, organism-based. The note with it: Human immunodeficiency virus 1, IIIB, MT4, 120 h.
Series [4] relates to Human immunodeficiency virus 1. The series is described as follows: Potency index, ratio of Etravirine EC50 to test compound EC50 for antiviral activity against HIV-1 IIIB infected in human MT4 cells by MTT assay. The format is functional.
The test system of series [5] is Human immunodeficiency virus 1. The series is described as follows: Antiviral activity against HIV-1 IIIB harboring RT E138K mutant infected in human MT4 cells assessed as protection against virus-induced cytotoxicity incubated for 5 days by MTT assay. The format is functional, organism-based. The note with it: Human immunodeficiency virus 1, IIIB, MT4, 120 h.
Series [6] relates to Human immunodeficiency virus 1. The series is described as follows: Antiviral activity against HIV-1 IIIB harboring RT Y188L mutant infected in human MT4 cells assessed as protection against virus-induced cytotoxicity incubated for 5 days by MTT assay. The format is functional, organism-based. The note with it: Human immunodeficiency virus 1, IIIB, MT4, 120 h.
In series [7] the test system is Human immunodeficiency virus 1. The series is described as follows: Antiviral activity against HIV-1 IIIB harboring RT F227L/V106A mutant infected in human MT4 cells assessed as protection against virus-induced cytotoxicity incubated for 5 days by MTT assay. The note with it: Human immunodeficiency virus 1, IIIB, MT4, 120 h. The format is functional, organism-based.

Series [8] concerns Human immunodeficiency virus 1. The series is described as follows: Antiviral activity against HIV-1 RES056 infected in human MT4 cells assessed as protection against virus-induced cytotoxicity incubated for 5 days by MTT assay. Format: functional, organism-based. The settings on record: Human immunodeficiency virus 1, RES056, MT4, 120 h.
Series [9] can be described thus: Antiviral activity against HIV-2 ROD infected in human MT4 cells assessed as protection against virus-induced cytotoxicity incubated for 5 days by MTT assay. The note with it: HIV-2, ISOLATE ROD, MT4, 120 h. The format is functional, cell-based.
The test system of series [10] is Human immunodeficiency virus 1. The series is described as follows: Potency index, ratio of Etravirine EC50 to test compound EC50 for antiviral activity against HIV-1 IIIB harboring RT E138K mutant infected in human MT4 cells by MTT assay. Format: functional.
For series [11], the system named is Human immunodeficiency virus 1. The series is described as follows: Antiviral activity against HIV-1 IIIB harboring RT Y181C mutant infected in human MT4 cells assessed as protection against virus-induced cytotoxicity incubated for 5 days by MTT assay. Format: functional, organism-based. The note with it: Human immunodeficiency virus 1, IIIB, MT4, 120 h.
The test system of series [12] is Human immunodeficiency virus 1. The series is described as follows: Antiviral activity against HIV-1 IIIB infected in human MT4 cells assessed as protection against virus-induced cytotoxicity after 5 days by MTT assay. The format is functional, organism-based. The settings on record: Human immunodeficiency virus 1, IIIB, MT4, 120 h.
Series [13] can be described thus: Cytotoxicity against human MT4 cells assessed as reduction in cell viability after 5 days by MTT assay. The settings on record: time 5 day. The format is cell-based.
The target of series [14] is Human immunodeficiency virus type 1 reverse transcriptase (Human immunodeficiency virus 1, UniProt Q72547). The series is described as follows: Inhibition of wild type HIV-1 reverse transcriptase assessed as reduction in biotin-dUTP incorporation in presence of template-primer incubated for 60 mins followed by transferring to streptavidin-coated plate and further incubation for 60 mins by ELISA.

Bounds are passed on as bounds.

Usually EC50 stands for the concentration needed to bring the measured effect to its halfway point. Regarding `Cc1cc(C#N)cc(C)c1Oc1nc(Nc2ccc(C#N)cc2)nc2ccsc12`, in [1], the EC50 was 1.6 nM.
As a reminder, the CC50 is the concentration giving 50% cytotoxicity. One may read the IC50 as the concentration needed to halve the response being measured. Consider `Cc1cc(C#N)cc(C)c1Oc1nc(Nc2ccc(C#N)cc2)ncc1-c1ccncc1`, for which the EC50 in series [2] worked out at 4.2 nM; in series [3], 28.3 nM; in [5], 5.9 nM; in [6], 30.9 nM; in series [7], 41.3 nM; in [8], 718 nM. Moreover, the EC50 was above 28000 nM in [9], 24.1 nM in series [11] and 2.5 nM in series [12]. The “Ratio EC50” value in [4] is given as 1.2; in series [10], 1.4. In addition, in series [13], the CC50 at 120 h amounted to 28000 nM. In addition, in series [14], the IC50 came out at 570 nM.

(Values after ChEMBL document CHEMBL4819135, “Design, synthesis and anti-HIV evaluation of novel 5-substituted diarylpyrimidine derivatives as potent HIV-1 NNRTIs” (Bioorg Med Chem, 2021).)
